Reference: the supplement of paper PMC10883282
± gives the standard deviation of the averaged measurements.

Assays:
Assay in all cases: relative viability vs DMSO control (72 h) (fraction); higher = more viable cells
[1] = system: SW1353
Outline: (§1)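 Densities for seeding sarcoma cell lines into 384-well plates were set to give 80–90% confluence. After 24 h, 2.5 µl of serially diluted compound from source plates of 10 mM to 0.0002 mM went in, and plates stayed 72 h at 37 °C in 5% CO2 with 0.1% DMSO vehicle and a 5 µM positive control. Percent growth from ATPLite readings, averaged over up to triplicate wells, served as relative viability, rescaled so 1 means full and 0 means none.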

[2] = system: G401
Outline: as §1

[3] = system: SK-ES-1
Outline: as §1

[4] = system: KHOS-240S
Outline: as §1

[5] = system: MES-SA
Outline: as §1

[6] = system: SK-LMS-1
Outline: as §1

[7] = system: RD-ES
Outline: as §1

[8] = system: VA-ES-BJ
Outline: as §1

[9] = system: SYO-1
Outline: as §1

[10] = system: HT1080
Outline: as §1

[11] = system: RD
Outline: as §1

[12] = system: SW982
Outline: as §1

O=S(=O)(c1cccc2cnccc12)N1CCCNCC1 [Fasudil]
relative viability
Conditions | 0.00051 µM | 0.00152 µM | 0.00457 µM | 0.01372 µM | 0.04115 µM | 0.1235 µM | 0.3704 µM | 1.111 µM | 3.333 µM | 10 µM
[1] | 1.01 ± 0.027 | 1.048 ± 0.0054 | 1.03 ± 0.013 | 1.03 ± 0.045 | 1.0327 ± 0.00085 | 1 ± 0.025 | 1.04 ± 0.011 | 1.03 ± 0.024 | 0.97 ± 0.063 | 0.888 ± 0.12
[2] | 0.9413 ± 0.0077 | 0.92867 ± 0.0005 | 0.943 ± 0.034 | 0.948 ± 0.03 | 0.945 ± 0.039 | 0.975 ± 0.035 | 0.972 ± 0.042 | 0.984 ± 0.018 | 1.01 ± 0.046 | 1 ± 0.029
[3] | 0.955 ± 0.017 | 0.964 ± 0.049 | 0.963 ± 0.013 | 0.967 ± 0.053 | 0.996 ± 0.033 | 0.989 ± 0.032 | 1 ± 0.039 | 1.02 ± 0.032 | 1.06 ± 0.013 | 1.04 ± 0.033
[4] | 0.974 ± 0.012 | 0.976 ± 0.013 | 0.961 ± 0.0044 | 0.966 ± 0.022 | 0.957 ± 0.01 | 0.961 ± 0.021 | 0.959 ± 0.03 | 0.952 ± 0.048 | 0.942 ± 0.042 | 0.8862 ± 0.0063
[5] | 0.955 ± 0.02 | 0.967 ± 0.034 | 0.96 ± 0.021 | 0.967 ± 0.017 | 0.992 ± 0.015 | 0.967 ± 0.0097 | 0.994 ± 0.036 | 0.987 ± 0.037 | 0.941 ± 0.022 | 0.895 ± 0.026
[6] | 1.05 ± 0.073 | 1.05 ± 0.018 | 1.036 ± 0.0094 | 1.08 ± 0.021 | 1.03 ± 0.04 | 1.06 ± 0.055 | 1.03 ± 0.049 | 1.05 ± 0.013 | 1.01 ± 0.025 | 0.977 ± 0.05
[7] | 0.957 ± 0.051 | 0.9873 ± 0.0042 | 0.98 ± 0.012 | 0.979 ± 0.012 | 0.9688 ± 0.006 | 0.98 ± 0.021 | 1.009 ± 0.0076 | 1.005 ± 0.0033 | 1.01 ± 0.024 | 1 ± 0.023
[8] | 0.961 ± 0.044 | 0.962 ± 0.025 | 0.974 ± 0.02 | 0.984 ± 0.027 | 0.945 ± 0.021 | 0.964 ± 0.035 | 0.981 ± 0.036 | 0.985 ± 0.034 | 0.978 ± 0.042 | 0.95 ± 0.022
[9] | 0.95 ± 0.033 | 0.984 ± 0.024 | 0.954 ± 0.038 | 0.9485 ± 0.0056 | 0.963 ± 0.036 | 0.954 ± 0.014 | 0.983 ± 0.02 | 0.97 ± 0.069 | 0.968 ± 0.014 | 0.902 ± 0.028
[10] | 1.03 ± 0.018 | 1.03 ± 0.02 | 1.066 ± 0.01 | 1.04 ± 0.02 | 1.03 ± 0.049 | 1.03 ± 0.017 | 1.06 ± 0.053 | 1.06 ± 0.016 | 1.07 ± 0.046 | 1.06 ± 0.048
[11] | 0.969 ± 0.023 | 0.985 ± 0.03 | 0.952 ± 0.027 | 0.978 ± 0.028 | 0.963 ± 0.029 | 0.956 ± 0.028 | 0.961 ± 0.062 | 0.999 ± 0.061 | 1.05 ± 0.067 | 1.06 ± 0.07
[12] | 0.974 ± 0.013 | 0.974 ± 0.032 | 0.966 ± 0.028 | 0.987 ± 0.014 | 0.976 ± 0.016 | 0.971 ± 0.015 | 0.961 ± 0.012 | 0.977 ± 0.04 | 0.962 ± 0.033 | 0.966 ± 0.014

O=C(Nc1nc2cccc(-c3ccc(CN4CCS(=O)(=O)CC4)cc3)n2n1)C1CC1 [Filgotinib]
Conditions | relative viability
[1], 0.00017 µM | 1.06 ± 0.028
[1], 0.00051 µM | 1.09 ± 0.047
[1], 0.00152 µM | 1.05 ± 0.05
[1], 0.00457 µM | 1.01 ± 0.015
[1], 0.01372 µM | 1.04 ± 0.024
[1], 0.04115 µM | 1 ± 0.036
[1], 0.1235 µM | 0.981 ± 0.053
[1], 0.3704 µM | 1.02 ± 0.057
[1], 1.111 µM | 1 ± 0.023
[1], 3.333 µM | 0.985 ± 0.019
[1], 10 µM | 0.968 ± 0.014
[2], 0.00017 µM | 0.988 ± 0.026
[2], 0.00051 µM | 1.04 ± 0.059
[2], 0.00152 µM | 1.027 ± 0.01
[2], 0.00457 µM | 1.03 ± 0.033
[2], 0.01372 µM | 1.01 ± 0.036
[2], 0.04115 µM | 0.995 ± 0.016
[2], 0.1235 µM | 1.04 ± 0.02
[2], 0.3704 µM | 1.01 ± 0.017
[2], 1.111 µM | 1.03 ± 0.048
[2], 3.333 µM | 1.01 ± 0.043
[2], 10 µM | 0.911 ± 0.059
[3], 0.00017 µM | 1.02 ± 0.044
[3], 0.00051 µM | 1.06 ± 0.038
[3], 0.00152 µM | 1.07 ± 0.046
[3], 0.00457 µM | 1.04 ± 0.017
[3], 0.01372 µM | 1.06 ± 0.083
[3], 0.04115 µM | 1.07 ± 0.037
[3], 0.1235 µM | 1.04 ± 0.039
[3], 0.3704 µM | 1.03 ± 0.037
[3], 1.111 µM | 1 ± 0.042
[3], 3.333 µM | 1.05 ± 0.035
[3], 10 µM | 0.8196 ± 0.0029
[4], 0.00017 µM | 1.04 ± 0.013
[4], 0.00051 µM | 1.08 ± 0.038
[4], 0.00152 µM | 1.06 ± 0.028
[4], 0.00457 µM | 1.08 ± 0.033
[4], 0.01372 µM | 1.07 ± 0.029
[4], 0.04115 µM | 1.07 ± 0.027
[4], 0.1235 µM | 1.03 ± 0.024
[4], 0.3704 µM | 1.06 ± 0.024
[4], 1.111 µM | 1.054 ± 0.0083
[4], 3.333 µM | 1.02 ± 0.019
[4], 10 µM | 0.932 ± 0.03
[5], 0.00017 µM | 0.977 ± 0.016
[5], 0.00051 µM | 0.964 ± 0.031
[5], 0.00152 µM | 0.943 ± 0.051
[5], 0.00457 µM | 0.965 ± 0.02
[5], 0.01372 µM | 0.949 ± 0.023
[5], 0.04115 µM | 0.953 ± 0.026
[5], 0.1235 µM | 0.957 ± 0.02
[5], 0.3704 µM | 0.935 ± 0.025
[5], 1.111 µM | 0.94 ± 0.02
[5], 3.333 µM | 0.923 ± 0.022
[5], 10 µM | 0.736 ± 0.038
[6], 0.00017 µM | 1.06 ± 0.012
[6], 0.00051 µM | 1.08 ± 0.025
[6], 0.00152 µM | 1.06 ± 0.033
[6], 0.00457 µM | 1.06 ± 0.032
[6], 0.01372 µM | 1.06 ± 0.021
[6], 0.04115 µM | 1.08 ± 0.037
[6], 0.1235 µM | 1.05 ± 0.036
[6], 0.3704 µM | 1.05 ± 0.074
[6], 1.111 µM | 1.04 ± 0.055
[6], 3.333 µM | 1.02 ± 0.083
[6], 10 µM | 0.866 ± 0.013
[7], 0.00017 µM | 0.932 ± 0.05
[7], 0.00051 µM | 0.886 ± 0.03
[7], 0.00152 µM | 0.957 ± 0.033
[7], 0.00457 µM | 0.946 ± 0.0095
[7], 0.01372 µM | 0.928 ± 0.022
[7], 0.04115 µM | 0.944 ± 0.014
[7], 0.1235 µM | 0.949 ± 0.02
[7], 0.3704 µM | 0.957 ± 0.014
[7], 1.111 µM | 0.978 ± 0.037
[7], 3.333 µM | 0.924 ± 0.043
[7], 10 µM | 0.925 ± 0.013
[8], 0.00017 µM | 1.05 ± 0.018
[8], 0.00051 µM | 1.05 ± 0.053
[8], 0.00152 µM | 1.05 ± 0.021
[8], 0.00457 µM | 1.01 ± 0.022
[8], 0.01372 µM | 1.01 ± 0.013
[8], 0.04115 µM | 0.997 ± 0.011
[8], 0.1235 µM | 1.01 ± 0.032
[8], 0.3704 µM | 1.01 ± 0.023
[8], 1.111 µM | 0.976 ± 0.017
[8], 3.333 µM | 0.954 ± 0.016
[8], 10 µM | 0.851 ± 0.014
[9], 0.00017 µM | 0.992 ± 0.029
[9], 0.00051 µM | 0.995 ± 0.04
[9], 0.00152 µM | 0.957 ± 0.042
[9], 0.00457 µM | 0.97 ± 0.021
[9], 0.01372 µM | 0.907 ± 0.051
[9], 0.04115 µM | 0.903 ± 0.036
[9], 0.1235 µM | 0.872 ± 0.032
[9], 0.3704 µM | 0.843 ± 0.025
[9], 1.111 µM | 0.7846 ± 0.007
[9], 3.333 µM | 0.724 ± 0.0073
[9], 10 µM | 0.551 ± 0.03
[10], 0.00017 µM | 1.11 ± 0.031
[10], 0.00051 µM | 1.127 ± 0.01
[10], 0.00152 µM | 1.066 ± 0.0048
[10], 0.00457 µM | 1.06 ± 0.012
[10], 0.01372 µM | 1.08 ± 0.011
[10], 0.04115 µM | 1.1 ± 0.025
[10], 0.1235 µM | 1.08 ± 0.036
[10], 0.3704 µM | 1.12 ± 0.021
[10], 1.111 µM | 1.09 ± 0.085
[10], 3.333 µM | 1.13 ± 0.097
[10], 10 µM | 1.12 ± 0.021
[11], 0.00017 µM | 1.02 ± 0.053
[11], 0.00051 µM | 1.04 ± 0.062
[11], 0.00152 µM | 1.04 ± 0.066
[11], 0.00457 µM | 1.1 ± 0.037
[11], 0.01372 µM | 1.07 ± 0.042
[11], 0.04115 µM | 1.1 ± 0.065
[11], 0.1235 µM | 1.07 ± 0.086
[11], 0.3704 µM | 1.1 ± 0.049
[11], 1.111 µM | 1.1 ± 0.038
[11], 3.333 µM | 1.01 ± 0.011
[11], 10 µM | 0.846 ± 0.061
[12], 0.00017 µM | 1 ± 0.025
[12], 0.00051 µM | 1.04 ± 0.028
[12], 0.00152 µM | 1.06 ± 0.04
[12], 0.00457 µM | 1.08 ± 0.03
[12], 0.01372 µM | 1.05 ± 0.012
[12], 0.04115 µM | 1.06 ± 0.012
[12], 0.1235 µM | 1.02 ± 0.031
[12], 0.3704 µM | 1.06 ± 0.013
[12], 1.111 µM | 1.02 ± 0.023
[12], 3.333 µM | 1.06 ± 0.024
[12], 10 µM | 0.939 ± 0.071
